≈ marks a conversion by molar mass, not a printed value.
Assays:
Format in all cases: physicochemical
log P of Compound 1 = assay: log P of Compound 1
[1] = Solubility screens for formulation strategies (lipidic, mesoporous silica, spray drying)
Description: The inventors investigated multiple strategies to make an effective solid formulation, including: • Conventional immediate release tablets. […] Screen of co-crystal former molecules was unsuccessful in identifying a suitable co-crystal form. • Lipid formulation: Compound 1 is a neutral molecule, and not lipophilic.

physchem [2] = assay: physchem
physchem [3] = assay: physchem; remark: listed apart in the source

Compound: Cc1cc(-c2nnc(N)nc2-c2ccc(F)cc2)cc(Cl)n1 [Compound 1, 6-(2-chloro-6-methylpyridin-4-yl)-5-(4-fluorophenyl)-1,2,4-triazin-3-amine]
- logP (log P of Compound 1): 2.8
- solubility in solvents suitable for spray drying [1]: limited solubility
- solubility in suitable solvent for mesoporous silica formulation [1]: inadequate
- solubility in suitable excipients for a lipidic formulation ([1]; lipidic screen): did not show significant solubility
- pKa (physchem [2]): 1.78
- solubility (physchem [3]; fassif): 5.8 µg/mL (≈ 18.4 µM)
- solubility (physchem [3]; pH 1.2, simulated gastric fluid): 29.8 µg/mL (≈ 94.4 µM)
- solubility (physchem [3]; pH 7, aqueous buffer): < 5 µg/mL

Source: US12502355B2, “Solid pharmaceutical formulations of 6-(2-chloro-6-methylpyridin-4-yl)-5-(4-fluorophenyl)-1,2,4-triazin-3-amine” (AstraZeneca AB, priority 2019, dated 2025)
